Measured values taken from US20220248732A1, “Saltiness-Perception Enhancing Compounds” (Frito-Lay North America, Inc., priority 2021, published 2022).

Columns and labels:
[1] = tested on: panelists (saltiness intensity); assay: Descriptive analysis of saltiness intensity of topically coated potato chip samples (sample sets 3 and 4), 15-point scale; type: in vivo, human; details: for salt-enhancing activity on potato chips: applied topically (as mixture) to 20% and 40% salt reduced potato chips at the 1x dosage
Text: (§1) The terms “saltiness,” “saltiness intensity,” and “mean saltiness intensity” may refer to the saltiness intensity of a compound, a composition, and/or a food product determined by an individual tasting a sample of the compound, the composition, and/or the food product and rating its saltiness intensity using a designated scale, such as the 15-point saltiness scale described herein.
(§2) Next, the panelists conducted descriptive analysis to evaluate the saltiness intensity of the following four sample sets.
(3) 1 g potato chip samples with 20% reduction in NaCl (12.3 g NaCl/kg) and 40% reductions in NaCl (9.2 g NaCl/kg), relative to traditional potato chips (15.4 g NaCl/kg); and
(4) 1 g potato chip samples at 20% and 40% salt reductions (relative to standard potato chips) with the addition of a mixture of the identified saltiness-enhancing compounds topically applied to potato chips at the endogenous level of the analyzed unsalted potato chips (1×).
(§3) Panelist evaluation of sample set (3): Twelve panelists rated saltiness intensity using a 15-point scale, in duplicate. The saltiness references provided were 0 points (water), 2.5 points (0.2% NaCl), 5 points (0.35% NaCl), and 8.5 points (0.5% NaCl).
Panelist evaluation of sample set (4): Nine panelists rated saltiness intensity using a 15-point scale, in duplicate. The saltiness references provided were 0 points (water), 2.5 points (0.2% NaCl), 5 points (0.35% NaCl), and 8.5 points (0.5% NaCl). […] Thus, application of one or more of the identified saltiness-perception enhancing compounds to a food product may enable a reduction of up to about 40 wt % of the amount of salt applied to a food product while eliminating or attenuating the concomitant reduction in saltiness that would otherwise occur.

[2] = tested on: panelists (saltiness intensity); assay: Descriptive analysis of saltiness intensity of aqueous salt solutions (sample sets 1 and 2), 15-point scale; type: in vivo, human; details: for saltiness enhancement in salt solutions: 1x dosage level, 3.52 g NaCl/L (20% NaCl reduction), Tukey HSD alpha 0.05
Text: as §1, §2
(1) 2 mL samples of aqueous salt solutions with a 20% reduction in NaCl (3.52 g NaCl/L H2O) and 40% reduction in NaCl (2.64 NaCl/L H2O), relative to 2 mL of a control sample having a simulated saltiness intensity of traditional potato chips (4.40 g NaCl/L H2O);
(2) 2 mL samples of pH 6.2-6.5 aqueous salt solutions at the 20% NaCl reduction level (3.52 g NaCl/L H2O) with the addition of individual ones of the identified saltiness-enhancing compounds, where the compound dosage was at the endogenous level of the analyzed unsalted potato chips (1×) and at three times the endogenous level of the potato chips (3×);
Panelist evaluation of sample set (1): Twelve panelists rated saltiness intensity using a 15-point scale, in duplicate. The saltiness references provided were 0 points (water), 2.5 points (0.2% NaCl), 5 points (0.35% NaCl), and 8.5 points (0.5% NaCl).
as §3, with “(2): Eight” for “(3): Twelve”, “NaCl). The sensory dosage concentrations of the saltiness-enhancing compounds of the samples of sample set (2) is shown below in Table 3.” for “NaCl).”

N[C@@H](Cc1c[nH]c2ccccc12)C(=O)O [L-Trp, L-tryptophan]
salt-enhancing activity on potato chips [1]: salt-enhancing activity
Mean Saltiness Intensity ([2]; 3.52 g NaCl + 31.66 mg L-Trp per L water (1x), pH 6.2-6.5, 15-point scale, eight panelists, Tukey group a (NaCl alone 5.1 b)): 5.7 a
Mean Saltiness Intensity ([2]; 3.52 g NaCl + 94.98 mg L-Trp per L water (3x), pH 6.2-6.5, 15-point scale, eight panelists, Tukey group a (NaCl alone 5.1 b)): 5.8 a

O=C(CCc1ccc(O)c(O)c1)NCCCNCCCCNCCCNC(=O)CCc1ccc(O)c(O)c1 [KA, Kukoamine A]
salt-enhancing activity on potato chips [1]: salt-enhancing activity
saltiness enhancement in salt solutions [2]: significant saltiness enhancement
Mean Saltiness Intensity ([2]; 3.52 g NaCl + 1.57 mg KA per L water (1x), pH 6.2-6.5, 15-point scale, eight panelists, Tukey group a (NaCl alone 5.1 b)): 5.9 a
Mean Saltiness Intensity ([2]; 3.52 g NaCl + 4.70 mg KA per L water (3x), pH 6.2-6.5, 15-point scale, eight panelists, Tukey group ab (NaCl alone 5.1 b)): 5.6 ab

O=C(O)c1cc(O[C@@H]2OC[C@@H](O)[C@H](O)[C@H]2O)ccc1O [GAX, Gentisic acid 5-O-β-D xylopyranoside]
salt-enhancing activity on potato chips [1]: salt-enhancing activity
saltiness enhancement in salt solutions [2]: significant saltiness enhancement
Mean Saltiness Intensity ([2]; 3.52 g NaCl + 0.44 mg GAX per L water (1x), pH 6.2-6.5, 15-point scale, eight panelists, Tukey group a (NaCl alone 5.0 b)): 6.0 a
Mean Saltiness Intensity ([2]; 3.52 g NaCl + 1.32 mg GAX per L water (3x), pH 6.2-6.5, 15-point scale, eight panelists, Tukey group ab (NaCl alone 5.0 b)): 5.4 ab

[Cl-].[Na+] [NaCl, sodium chloride]
Mean Saltiness Intensity ([1]; 9.2 g/kg NaCl on potato chips alone, 40% salt reduction sample comparison, nine panelists, Tukey group c): 4.2 c
Mean Saltiness Intensity ([1]; 12.3 g NaCl per Kg potato chips alone, 20% salt reduction sample comparison, nine panelists, Tukey group b): 5.0 b
Mean Saltiness Intensity ([1]; 15.4 g NaCl (full salt) per Kg potato chips, 20% salt reduction sample comparison, nine panelists, Tukey group a): 6.2 a
Mean Saltiness Intensity ([1]; 15.4 g NaCl (full salt) per Kg potato chips, 40% salt reduction sample comparison, nine panelists, Tukey group a): 6.2 a
Mean Saltiness Intensity ([1]; topical coating 9.2 g NaCl per Kg potato chips, 40% reduced salt, 15-point scale, twelve panelists, Tukey group C): 4.2 C
Mean Saltiness Intensity ([1]; topical coating 12.3 g NaCl per Kg potato chips, 20% reduced salt, 15-point scale, twelve panelists, Tukey group B): 5.3 B
Mean Saltiness Intensity ([1]; topical coating 15.4 g NaCl per Kg potato chips (traditional), 15-point scale, twelve panelists, Tukey group A): 6.1 A
Mean Saltiness Intensity ([2]; 2.64 g NaCl per L water, 40% reduced salt, 15-point scale, twelve panelists, Tukey group C): 4.4 C
Mean Saltiness Intensity ([2]; 3.52 g NaCl per L water alone, control of GAX sample set, 15-point scale, eight panelists, Tukey group b): 5.0 b
Mean Saltiness Intensity ([2]; 3.52 g NaCl per L water alone, control of KA sample set, 15-point scale, eight panelists, Tukey group b): 5.1 b
Mean Saltiness Intensity ([2]; 3.52 g NaCl per L water alone, control of L-Trp sample set, 15-point scale, eight panelists, Tukey group b): 5.1 b
Mean Saltiness Intensity ([2]; 3.52 g NaCl per L water, 20% reduced salt, 15-point scale, twelve panelists, Tukey group B): 5.4 B
Mean Saltiness Intensity ([2]; 4.40 g NaCl per L water (control), 15-point scale, twelve panelists, Tukey group A): 7.2 A
